System: DMARD-refractory active RA
Test: Phase 2a trial of masitinib in DMARD-refractory active RA: efficacy (ACR, ACRn, CRP, DAS28)
Format: in vivo, Human
Parameters: ACRn Mean ± SD / ACRn Median: unit not given here
From the text: The main exclusion criteria were patients with: inadequate bone marrow function, defined as an absolute neutrophil count ≦2.5×10^9/litre, and platelets ≦100×10^9/litre; active current infection, history of infection requiring hospitalisation, history of recurrent infections, or treatment with antibiotics within 2 weeks of screening. Treatment wash-out periods observed prior to entry to the study were: a) DMARD use within 4 weeks; b) five half-lives, or wash-out in accordance for a specific drug, whichever is longer; c) any live (attenuated) vaccines taken within 4 weeks; d) use of more than one NSAID or its dosage change within 4 weeks; e) prednisone or equivalent corticosteroid dosage >10 mg/day or any dosage change within 4 weeks; and f) prednisone or equivalent corticosteroid dosage >20 mg administered via intra-articular injection, bolus intramuscular or intravenous treatment within 4 weeks. Other exclusion criteria included any previous use of recombinant interleukin-1 receptor antagonist (IL1-Ra) and patients who were pregnant or nursing.
Efficacy data are presented using descriptive statistics, contrasting initial dosage groups or according to previous DMARD failure. For comparison of groups according to initial dosage on a continuous variable, Student test (with Satterwhaite correction for unequal variance) or Wilcoxon test were used when normality was not rejected or rejected, respectively (normality determined via the Shapiro-Wilk test). For the same comparison on a qualitative variable, Chi-square or Fisher Exact test (if the Chi-square hypotheses were not filled) were used. The rate of patients achieving the various ACR response variables after 12 weeks of treatment (remission rate) are presented in terms of percentage and number of patients. Patients were assigned to either 3 or 6 mg/kg/day treatment groups based upon a randomisation schedule generated for packaging and labelling by the Biostatistics Section of AB Science. Individual treatment doses to be administered were supplied in sealed envelopes to be opened by the investigator at time of inclusion. Patients received the treatment from the investigator on an open basis.
Due to the relatively high patient drop-out rate of this study, analysis was conducted on two different datasets: one with an imputation of missing values according to the last observation carried forward (LOCF) methodology and the other in the absence of data imputation, i.e. the observed cases (OC). Analysis for efficacy was performed on a modified Intention-To-Treat (ITT) population and Per Protocol (PP) population. […] The PP population was defined as a subgroup of the ITT population that in addition had presented no major protocol deviations and had completed at least 28 days of treatment exposure.

[1] = Total population (n = 40), ITT population
[2] = W 24, extension phase, ITT population, n = 4
[3] = W 24, extension phase, ITT population, n = 7
[4] = W 36, extension phase, ITT population, n = 5
[5] = W 36, extension phase, ITT population, n = 9
[6] = W 36, extension phase, ITT population, n = 12
[7] = W 48, extension phase, ITT population, n = 6
[8] = W 48, extension phase, ITT population, n = 8
[9] = W 48, extension phase, ITT population, n = 9
[10] = W 60, extension phase, ITT population, n = 7
[11] = W 60, extension phase, ITT population, n = 8

In the case of `Cc1ccc(NC(=O)c2ccc(CN3CCN(C)CC3)cc2)cc1Nc1nc(-c2cccnc2)cs1` [masitinib, 4-(4-methylpiperazin-1-ylmethyl)-N-[4-methyl-3-(4-pyridin-3ylthiazol-2-ylamino)phenyl]benzamide], the “Non-responders (failed to reach ACR20) after dose augmentation” value (3 mg/kg/day group, 12 patients augmented at weeks 4 or 8) is reported as 42%, the “Patients with improved response after dose augmentation” value (3 mg/kg/day group, 12 patients augmented at weeks 4 or 8, initial 12-week phase) is reported as 58% and the “Dose response analyses: dose level” value (6 mg/kg/day) is reported as “most potent”. The “Highest response rate for the ACR50 threshold by dose at first response” value (5/15, dosage not given) was 33.3%, the “Time to first response ACR20, Mean ± SD” value [1] was 46.3 ± 22.4 days and the “Time to first response ACR20, Median” value [1] was 35.0 days. The “Time to first response ACR20, Min-Max” value [1] was 28.0 to 105.0 days, the “Time to first response ACR50, Mean ± SD” value [1] was 89.1 ± 58.2 days and the “Time to first response ACR50, Median” value [1] was 84.0 days. For the same compound, the “Time to first response ACR50, Min-Max” value [1] was 28.0 to 217.0 days, the “DAS28 <2.6, patients” value (W 12, ITT population, n = 24) was 1 (4.%) and the “DAS28 Mean ± SD” value (W 12, ITT population, n = 24) was 4.6 ± 1.3. The “DAS28 Median” value (W 12, ITT population, n = 24) was 4.4, the “DAS28 Min-Max” value (W 12, ITT population, n = 24) was 0.5-7.0 and the “DAS28 ≦3.2, patients” value (W 12, ITT population, n = 24) was 1 (4%). The “ACR20, patients reaching level” value (W 12, ITT population, n = 27) was 15 (56%), the “ACR50, patients reaching level” value (W 12, ITT population, n = 27) was 9 (33%) and the “ACR70, patients reaching level” value (W 12, ITT population, n = 27) was 3 (11%). For the same compound, the “ACR90, patients reaching level” value (W 12, ITT population, n = 27) was 0 (0%), the “ACRn Mean ± SD” value (W 12, ITT population, n = 27) was 31.6 ± 33.5 and the “ACRn Median” value (W 12, ITT population, n = 27) was 42.9. For the same compound, the “ACRn Min-Max” value (W 12, ITT population, n = 27) was −40.0-87.5, the “CRP 0% < Improvement ≦25%, patients” value (W 12, ITT population, n = 28) was 5 (18%) and the “CRP 25% < Improvement ≦50%, patients” value (W 12, ITT population, n = 28) was 3 (11%). The “CRP Deterioration, patients” value (W 12, ITT population, n = 28) was 3 (11%), the “CRP Improvement >50%, patients” value (W 12, ITT population, n = 28) was 14 (50%) and the “CRP Stable, patients” value (W 12, ITT population, n = 28) was 3 (11%). For the same compound, the “DAS28 <2.6, patients” value [2] was 0 (0%), the “DAS28 Mean ± SD” value [2] was 5.2 ± 1.7 and the “DAS28 Median” value [2] was 4.9. The “DAS28 Min-Max” value [2] was 3.6-7.5, the “DAS28 ≦3.2, patients” value [2] was 0 (0%) and the “ACR20, patients reaching level” value [3] was 6 (86%). For the same compound, the “ACR50, patients reaching level” value [3] was 2 (27%), the “ACR70, patients reaching level” value [3] was 1 (14%) and the “ACR90, patients reaching level” value [3] was 0 (0%). For the same compound, the “ACRn Mean ± SD” value [3] was 36.0 ± 29.0, the “ACRn Median” value [3] was 40.7 and the “ACRn Min-Max” value [3] was −16.7-73.0. The “CRP 0% < Improvement ≦25%, patients” value [3] was 1 (14%), the “CRP 25% < Improvement ≦50%, patients” value [3] was 0 (0%) and the “CRP Deterioration, patients” value [3] was 0 (0%). For the same compound, the “CRP Improvement >50%, patients” value [3] was 5 (71%), the “CRP Stable, patients” value [3] was 1 (14%) and the “DAS28 <2.6, patients” value [4] was 1 (20%). The “DAS28 Mean ± SD” value [4] was 4.4 ± 1.9, the “DAS28 Median” value [4] was 4.1 and the “DAS28 Min-Max” value [4] was 2.3-7.5. The “DAS28 ≦3.2, patients” value [4] was 1 (20%), the “ACR20, patients reaching level” value [5] was 7 (78%) and the “ACR50, patients reaching level” value [5] was 4 (44%). The “ACR70, patients reaching level” value [5] was 2 (22%), the “ACR90, patients reaching level” value [5] was 1 (11%) and the “ACRn Mean ± SD” value [5] was 45.9 ± 32.3. The “ACRn Median” value [5] was 45.5, the “ACRn Min-Max” value [5] was −3.8-93.3 and the “CRP 0% < Improvement ≦25%, patients” value [6] was 1 (8%). For the same compound, the “CRP 25% < Improvement ≦50%, patients” value [6] was 1 (8%), the “CRP Deterioration, patients” value [6] was 0 (0%) and the “CRP Improvement >50%, patients” value [6] was 9 (75%). For the same compound, the “CRP Stable, patients” value [6] was 1 (8%), the “DAS28 <2.6, patients” value [7] was 0 (0%) and the “DAS28 Mean ± SD” value [7] was 4.7 ± 2.1. For the same compound, the “DAS28 Median” value [7] was 4.4, the “DAS28 Min-Max” value [7] was 2.7-8.7 and the “DAS28 ≦3.2, patients” value [7] was 2 (33%). For the same compound, the “ACR20, patients reaching level” value [8] was 5 (63%), the “ACR50, patients reaching level” value [8] was 3 (38%) and the “ACR70, patients reaching level” value [8] was 1 (13%). For the same compound, the “ACR90, patients reaching level” value [8] was 0 (0%), the “ACRn Mean ± SD” value [8] was 30.9 ± 36.7 and the “ACRn Median” value [8] was 40.0. The “ACRn Min-Max” value [8] was −20.0-70.9, the “CRP 0% < Improvement ≦25%, patients” value [9] was 1 (11%) and the “CRP 25% < Improvement ≦50%, patients” value [9] was 0 (0%). The “CRP Deterioration, patients” value [9] was 2 (22%), the “CRP Improvement >50%, patients” value [9] was 6 (67%) and the “CRP Stable, patients” value [9] was 0 (0%). The “CRP 0% < Improvement ≦25%, patients” value [10] was 1 (14%), the “CRP 25% < Improvement ≦50%, patients” value [10] was 3 (43%) and the “CRP Deterioration, patients” value [10] was 0 (0%). The “CRP Improvement >50%, patients” value [10] was 3 (43%), the “CRP Stable, patients” value [10] was 0 (0%) and the “DAS28 <2.6, patients” value [10] was 4 (57%). The “DAS28 Mean ± SD” value [10] was 3.3 ± 1.5, the “DAS28 Median” value [10] was 2.6 and the “DAS28 Min-Max” value [10] was 1.7-5.3. For the same compound, the “DAS28 ≦3.2, patients” value [10] was 4 (57%), the “ACR20, patients reaching level” value [11] was 6 (75%) and the “ACR50, patients reaching level” value [11] was 6 (75%). The “ACR70, patients reaching level” value [11] was 3 (38%), the “ACR90, patients reaching level” value [11] was 2 (25%) and the “ACRn Mean ± SD” value [11] was 58.3 ± 31.4.

Reference: patent publication US20130267484A1, “TREATMENT OF RHEUMATOID ARTHRITIS WITH MASITINIB” (AB SCIENCE, priority 2010, published 2013)
